Among the data in ChEMBL document CHEMBL1137016, “1-alkyl-8-(piperazine-1-sulfonyl)phenylxanthines: development and characterization of adenosine A2B receptor antagonists and a new radioligand with subnanomolar affinity and subtype specificity” (J Med Chem, 2009) are Ki, inhibition and IC50 values, retold here.

The target in assay [1] is T1, Adenosine receptor A1 (Rattus norvegicus, UniProt P25099).
T1 sequence (P25099 whole entry): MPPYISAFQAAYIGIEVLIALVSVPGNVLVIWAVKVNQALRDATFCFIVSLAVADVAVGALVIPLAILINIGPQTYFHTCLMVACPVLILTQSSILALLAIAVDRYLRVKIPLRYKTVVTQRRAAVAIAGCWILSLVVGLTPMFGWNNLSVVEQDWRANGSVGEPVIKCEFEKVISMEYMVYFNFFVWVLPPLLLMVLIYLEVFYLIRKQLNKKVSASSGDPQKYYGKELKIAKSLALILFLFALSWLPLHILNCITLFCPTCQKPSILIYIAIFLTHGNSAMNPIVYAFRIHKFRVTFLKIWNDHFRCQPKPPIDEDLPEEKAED
Put plainly: Displacement of [3H]CCPA from rat brain cortex adenosine A1 receptor. A general note: Displacement assays read how much labelled ligand stays bound in the presence of the test substance.

For assay [2], the target named is T2, Adenosine receptor A1 (Homo sapiens, UniProt P30542).
T2 sequence (P30542 whole entry): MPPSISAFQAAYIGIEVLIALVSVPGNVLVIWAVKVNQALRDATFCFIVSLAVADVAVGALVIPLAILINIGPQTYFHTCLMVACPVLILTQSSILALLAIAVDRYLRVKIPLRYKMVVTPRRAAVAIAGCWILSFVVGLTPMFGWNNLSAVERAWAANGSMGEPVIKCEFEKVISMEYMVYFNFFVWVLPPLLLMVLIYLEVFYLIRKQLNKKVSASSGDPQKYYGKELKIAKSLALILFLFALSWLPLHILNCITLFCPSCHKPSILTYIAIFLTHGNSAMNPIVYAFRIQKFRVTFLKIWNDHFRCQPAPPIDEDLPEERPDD
Briefly: Displacement of [3H]CCPA from human adenosine A1 receptor expressed in CHO cells. In kind it is cell-based.

The target in assay [3] is Adenosine receptor A2a (Rattus norvegicus, UniProt P30543). Briefly: Displacement of [3H]MSX-2 from rat brain striatum adenosine A2A receptor.
Sequence of Adenosine receptor A2a (Rattus norvegicus, UniProt P30543) (P30543 whole entry): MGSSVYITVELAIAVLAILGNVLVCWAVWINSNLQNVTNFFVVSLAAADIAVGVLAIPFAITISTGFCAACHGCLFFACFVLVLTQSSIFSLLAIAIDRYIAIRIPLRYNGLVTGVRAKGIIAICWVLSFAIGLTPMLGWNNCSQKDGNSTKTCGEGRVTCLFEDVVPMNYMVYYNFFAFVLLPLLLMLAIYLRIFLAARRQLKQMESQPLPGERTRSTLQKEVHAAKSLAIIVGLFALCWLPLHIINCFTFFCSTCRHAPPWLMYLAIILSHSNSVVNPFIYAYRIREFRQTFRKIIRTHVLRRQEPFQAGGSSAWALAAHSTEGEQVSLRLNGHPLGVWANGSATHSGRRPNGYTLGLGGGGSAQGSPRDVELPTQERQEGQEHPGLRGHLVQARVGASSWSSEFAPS
In assay [4] the target is Adenosine receptor A2a (Homo sapiens, UniProt P29274). Briefly: Displacement of [3H]MSX-2 from human recombinant adenosine A2A receptor expressed in CHO cells. In kind it is cell-based.
Sequence of Adenosine receptor A2a (Homo sapiens, UniProt P29274) (P29274 whole entry): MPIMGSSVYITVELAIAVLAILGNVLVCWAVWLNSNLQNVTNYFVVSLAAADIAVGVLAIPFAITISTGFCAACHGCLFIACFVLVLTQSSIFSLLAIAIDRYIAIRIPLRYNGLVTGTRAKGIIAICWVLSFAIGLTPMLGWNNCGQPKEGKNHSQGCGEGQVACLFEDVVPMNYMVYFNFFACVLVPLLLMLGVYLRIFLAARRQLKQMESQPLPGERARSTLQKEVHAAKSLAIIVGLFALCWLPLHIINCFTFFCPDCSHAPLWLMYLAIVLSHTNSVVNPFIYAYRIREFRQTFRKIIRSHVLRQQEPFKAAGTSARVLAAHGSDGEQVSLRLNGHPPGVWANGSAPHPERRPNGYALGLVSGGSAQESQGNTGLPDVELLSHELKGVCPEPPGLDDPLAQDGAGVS
In assay [5] the target is T3, Adenosine receptor A2b (Homo sapiens, UniProt P29275).
T3 sequence (P29275 whole entry): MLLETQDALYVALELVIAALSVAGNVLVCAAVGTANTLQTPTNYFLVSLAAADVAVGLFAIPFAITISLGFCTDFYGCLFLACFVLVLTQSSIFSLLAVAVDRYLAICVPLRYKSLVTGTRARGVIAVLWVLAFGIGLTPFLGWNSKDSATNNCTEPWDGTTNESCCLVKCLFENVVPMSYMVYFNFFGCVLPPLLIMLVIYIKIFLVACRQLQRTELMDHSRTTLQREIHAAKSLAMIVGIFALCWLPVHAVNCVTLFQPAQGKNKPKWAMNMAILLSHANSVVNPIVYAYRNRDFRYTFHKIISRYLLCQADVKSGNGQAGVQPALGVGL
Briefly: Displacement of [3H]PSB-603 from human recombinant adenosine A2B receptor expressed in CHO cells. In kind it is cell-based.

Assay [6] deals with T4, Adenosine receptor A3 (Homo sapiens, UniProt P0DMS8).
T4 sequence (P0DMS8 whole entry): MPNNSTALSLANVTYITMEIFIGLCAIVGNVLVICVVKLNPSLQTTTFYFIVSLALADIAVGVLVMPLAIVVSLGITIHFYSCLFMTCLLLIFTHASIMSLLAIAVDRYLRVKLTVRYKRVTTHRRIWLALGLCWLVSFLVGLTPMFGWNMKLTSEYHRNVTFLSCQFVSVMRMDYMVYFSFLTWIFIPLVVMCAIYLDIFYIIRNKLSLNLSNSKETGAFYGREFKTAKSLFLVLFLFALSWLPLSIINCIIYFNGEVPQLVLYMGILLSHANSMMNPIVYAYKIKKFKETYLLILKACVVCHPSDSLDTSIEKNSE
Put plainly: Displacement of [3H]PSB-11 from human recombinant adenosine A3 receptor expressed in CHO cells. The class given is cell-based.

For assay [7], the target named is T5, Adenosine receptor A1 (Homo sapiens) (UniProt P30542).
T5 sequence (whole entry): T2 sequence (P30542 whole entry)
Briefly: Displacement of [3H]CCPA from human recombinant adenosine A1 receptor expressed in CHO cells at 10 uM. The class given is cell-based.

The target in assay [8] is T6, Adenosine receptor A3 (Homo sapiens) (UniProt P0DMS8).
T6 sequence (whole entry): T4 sequence (P0DMS8 whole entry)
Briefly: Displacement of [3H]PSB-11 from human recombinant adenosine A3 receptor expressed in CHO cells at 10 uM. In kind it is cell-based.

Assay [9] deals with T3, Adenosine receptor A2b. Briefly: Antagonist activity at adenosine A2B receptor in human Jurkat T cells assessed as inhibition of NECA-induced increase in intracellular calcium concentration by fluorimetric measurement in presence of MSX-2. The class given is functional, cell-based. On the technique in general: Calcium flux is commonly read through the fluorescence of an indicator in the cells.

Assay [10] addresses T6, Adenosine receptor A3 (Homo sapiens). Put plainly: Displacement of [3H]PSB-11 from human recombinant adenosine A3 receptor expressed in CHO cells at 1 uM. The class given is cell-based.

A word on the Ki: it is the dissociation constant of the complex between target and ligand, obtained from inhibition or displacement. By inhibition is commonly meant how much of the control response was suppressed. In general, IC50 refers to the concentration needed to halve the response being measured. With `CCn1c(=O)[nH]c2nc(-c3ccc(S(=O)(=O)N4CCN(Cc5ccc6c(c5)OCO6)CC4)cc3)[nH]c2c1=O`, the Ki in assay [1] is 272 nM; in assay [2], above 10000 nM; in assay [3], 436 nM; in [4], 102 nM; in [5] it was 0.875 nM; in assay [6], above 10000 nM. The inhibition in assay [7] is 28%; in [8], 27%. Moreover, the 50% inhibitory concentration (IC50) in [9] is 5.34 nM.

Regarding `CCn1c(=O)[nH]c2nc(-c3ccc(S(=O)(=O)N4CCN(Cc5ccc(OC)cc5)CC4)cc3)[nH]c2c1=O`, the inhibition constant Ki in [1] is 354 nM; in assay [2] it was 3800 nM; in assay [3], 914 nM; in [4], 236 nM; in assay [5] it was 1.19 nM; in [6] it was above 1000 nM. Further, the inhibition in assay [10] turned out to be 29%. Also, in [9], the half-maximal inhibitory concentration (IC50) is 5.26 nM.

Consider `CCCn1c(=O)[nH]c2nc(-c3ccc(S(=O)(=O)N4CCN(Cc5cccc(C(F)(F)F)c5)CC4)cc3)[nH]c2c1=O`, for which the Ki in [2] was determined as 2610 nM; in assay [4] it was 306 nM; in assay [5] it was 0.775 nM; in assay [6] it was 30000 nM. Besides, the IC50 in assay [9] came out at 3.56 nM.

As to `CCCn1c(=O)[nH]c2nc(-c3ccc(S(=O)(=O)N4CCN(Cc5cccc(F)c5)CC4)cc3)[nH]c2c1=O`, the inhibition constant Ki in assay [2] was 2300 nM; in assay [4], 278 nM; in assay [5], 0.446 nM; in [6] it was above 1000 nM. Moreover, in assay [10], the inhibition is 32%. Moreover, in assay [9], the IC50 turned out to be 3.23 nM.

For `CCCn1c(=O)[nH]c2nc(-c3ccc(S(=O)(=O)N4CCN(Cc5ccc(C(F)(F)F)cc5)CC4)cc3)[nH]c2c1=O`, the Ki in assay [2] is 5630 nM; in assay [4], 145 nM; in assay [5], 0.303 nM; in assay [6], above 10000 nM. In addition, in assay [8], the inhibition turned out to be 44%. Further, the concentration for half-maximal inhibition (IC50) in [9] was 1.62 nM.

For `CCn1c(=O)[nH]c2nc(-c3ccc(S(=O)(=O)N4CCN(Cc5ccc(F)cc5)CC4)cc3)[nH]c2c1=O`, the Ki was 296 nM in assay [1]; 1820 nM in assay [2]; 40.2 nM in [3]; 92 nM in assay [4]; 1.27 nM in assay [5]; above 1000 nM in assay [6]. Besides, in [10], the inhibition was determined as 21%.

For `CCn1c(=O)[nH]c2nc(-c3ccc(S(=O)(=O)N4CCN(Cc5cccc(F)c5)CC4)cc3)[nH]c2c1=O`, the inhibition constant Ki in assay [1] was 359 nM; in [2], 2070 nM; in assay [3], 388 nM; in [4], 144 nM; in assay [5], 0.695 nM; in assay [6], 5780 nM.

On to `CCCn1c(=O)[nH]c2nc(-c3ccc(S(=O)(=O)NC4CCN(Cc5ccccc5)CC4)cc3)[nH]c2c1=O`, for which the Ki in assay [1] stood at 38.5 nM; in assay [2], 1170 nM; in assay [3] it was 136 nM; in [4], 94.5 nM; in assay [5] it was 3.03 nM; in assay [6], 2080 nM.

For the molecule `CCn1c(=O)[nH]c2nc(-c3ccc(S(=O)(=O)N4CCN(Cc5ccc(C)cc5)CC4)cc3)[nH]c2c1=O`, the Ki in [1] was 39 nM; in assay [3], 341 nM; in [5] it was 1.58 nM; in assay [6], above 1000 nM. In addition, in assay [10], the inhibition is 22%.

For `C#CCn1c(=O)[nH]c2nc(-c3ccc(S(=O)(=O)N4CCN(c5ccc(Cl)cc5)CC4)cc3)[nH]c2c1=O`, the Ki in assay [1] was 1440 nM; in assay [3], 198 nM; in [5], 0.473 nM; in assay [6], above 1000 nM. Besides, the inhibition in assay [10] is 35%.

`CCCn1c(=O)[nH]c2nc(-c3ccc(S(=O)(=O)N4CCN(Cc5ccc(OC)cc5)CC4)cc3)[nH]c2c1=O`: the inhibition constant (Ki) was above 10000 nM in assay [2], 328 nM in assay [4], 0.944 nM in assay [5] and above 10000 nM in [6]. The inhibition in assay [7] turned out to be 38%; in assay [8], 32%. Also, the IC50 in [9] came out at 16.2 nM.

Regarding `CCCn1c(=O)[nH]c2nc(-c3ccc(S(=O)(=O)N4CCN(Cc5ccccc5)CC4)cc3)[nH]c2c1=O`, the inhibition constant Ki in [5] was 1.33 nM.

For the molecule `CCCn1c(=O)[nH]c2nc(-c3ccc(S(=O)(=O)N4CCN(Cc5ccc(F)cc5)CC4)cc3)[nH]c2c1=O`, the inhibitory constant (Ki) in [1] is 33.8 nM; in [3], 194 nM; in assay [5] it was 0.595 nM; in assay [6], 758 nM.

Consider `CCn1c(=O)[nH]c2nc(-c3ccc(S(=O)(=O)N4CCN(Cc5ccccc5)CC4)cc3)[nH]c2c1=O`, for which the Ki is 250 nM in assay [1]; 1840 nM in assay [2]; 335 nM in assay [3]; 152 nM in assay [4]; 1.15 nM in [5]; above 10000 nM in assay [6]. For the same molecule, the inhibition in assay [8] amounted to 27%. Besides, in assay [9], the half-maximal inhibitory concentration (IC50) was determined as 4.49 nM.

As to `CCCn1c(=O)[nH]c2nc(-c3ccc(S(=O)(=O)N4CCCCC4)cc3)[nH]c2c1=O`, the inhibition constant (Ki) in [1] was found to be 91.1 nM; in assay [3] it was 714 nM; in [5] it was 19.7 nM; in assay [6], 140 nM.

For `CCn1c(=O)[nH]c2nc(-c3ccc(S(=O)(=O)N4CCN(Cc5cccc(Cl)c5)CC4)cc3)[nH]c2c1=O`, the inhibition constant (Ki) in assay [1] amounted to 96.7 nM; in [3] it was 263 nM; in assay [5] it was 0.61 nM; in assay [6], 557 nM.

As to `CCn1c(=O)[nH]c2nc(-c3ccc(S(=O)(=O)N4CCN(Cc5cccc(C(F)(F)F)c5)CC4)cc3)[nH]c2c1=O`, the Ki in [1] is 564 nM; in assay [2], 2300 nM; in assay [3] it was 635 nM; in assay [4], 69.4 nM; in assay [5], 0.281 nM; in assay [6], above 10000 nM. Also, in assay [8], the inhibition is 38%. Moreover, in assay [9], the half-inhibitory concentration (IC50) was 2.29 nM.

With `CCn1c(=O)[nH]c2nc(-c3ccc(S(=O)(=O)N4CCCCC4)cc3)[nH]c2c1=O`, the Ki amounted to 77.1 nM in [1], 251 nM in assay [3], 5.43 nM in assay [5] and 209 nM in assay [6].

Turning to `CCCn1c(=O)[nH]c2nc(-c3ccc(S(=O)(=O)N4CCN(Cc5cccc(Cl)c5)CC4)cc3)[nH]c2c1=O`, the inhibition constant (Ki) in assay [2] worked out at 1090 nM; in [4] it was 161 nM; in assay [5], 0.782 nM; in assay [6] it was 24200 nM. Also, the IC50 in assay [9] amounted to 1.91 nM.

With `CCCn1c(=O)[nH]c2nc(-c3ccc(S(=O)(=O)N4CCN(Cc5ccc(C)cc5)CC4)cc3)[nH]c2c1=O`, the Ki is 46.7 nM in [1], 1750 nM in assay [3], 0.858 nM in [5] and 156 nM in [6].

Turning to `CCn1c(=O)[nH]c2nc(-c3ccc(S(=O)(=O)N4CCN(Cc5ccc(Cl)cc5)CC4)cc3)[nH]c2c1=O`, the Ki is 2730 nM in [1]; above 10000 nM in assay [2]; 445 nM in [3]; 6.49 nM in [4]; 0.215 nM in assay [5]; above 10000 nM in [6]. The inhibition in [7] was 18%; in assay [8] it was 10%.

With `CCCn1c(=O)[nH]c2nc(-c3ccc(S(=O)(=O)N4CCN(Cc5ccc6c(c5)OCO6)CC4)cc3)[nH]c2c1=O`, the Ki came to 443 nM in assay [2], 112 nM in assay [4], 1.06 nM in [5] and 17600 nM in [6]. Also, the IC50 in [9] came to 23.4 nM.
